From patent publication US20040002445A1, “Enhancement of endogenous gonadotropin production” (priority 2002, published 2004)

Columns and labels:
plasma testosterone = assay: Phase 1 study of oral leuprolide acetate for 28 days, hormonal response (plasma testosterone); type: in vivo, human; conditions: for Testosterone levels: healthy males
From the text: Twenty subjects were assigned to each dosing group.

serum LH = conditions: two stimulations with 25 mcg each on 3 consecutive days, 12 normally menstruating females; cited from earlier work
plasma LH and FSH = conditions: intermittent, but not continuous, administration; cited from earlier work

CCNC(=O)[C@@H]1CCCN1C(=O)[C@H](CCCNC(=N)N)NC(=O)[C@H](CC(C)C)NC(=O)[C@@H](CC(C)C)NC(=O)[C@H](Cc1ccc(O)cc1)NC(=O)[C@H](CO)NC(=O)[C@H](Cc1c[nH]c2ccccc12)NC(=O)[C@H](Cc1c[nH]cn1)NC(=O)[C@@H]1CCC(=O)N1 [leuprolide acetate]
Testosterone levels relative to baseline (plasma testosterone; Group A, 5 mg q.d. oral): failed to raise the levels of testosterone above the baseline
Testosterone levels (plasma testosterone; Group A, 5 mg q.d. oral, Day 2, baseline 453.25): 452.45 ng/dL
Testosterone levels (plasma testosterone; Group A, 5 mg q.d. oral, Day 3, baseline 453.25): 406.25 ng/dL
Testosterone levels (plasma testosterone; Group A, 5 mg q.d. oral, Day 4, baseline 453.25): 384.70 ng/dL
Testosterone levels (plasma testosterone; Group A, 5 mg q.d. oral, Day 5, baseline 453.25): 430.55 ng/dL
Testosterone levels (plasma testosterone; Group A, 5 mg q.d. oral, Day 6, baseline 453.25): 434.55 ng/dL
Testosterone levels (plasma testosterone; Group A, 5 mg q.d. oral, Day 7, baseline 453.25): 413.75 ng/dL
Testosterone levels (plasma testosterone; Group A, 5 mg q.d. oral, Day 8, baseline 453.25): 405.85 ng/dL
Testosterone levels (plasma testosterone; Group A, 5 mg q.d. oral, Day 9, baseline 453.25): 358.8 ng/dL
Testosterone levels (plasma testosterone; Group A, 5 mg q.d. oral, Day 10, baseline 453.25): 369.80 ng/dL
Testosterone levels relative to baseline (plasma testosterone; Group B, 5 mg b.i.d. oral): higher than the baseline until Day 7
Testosterone levels (plasma testosterone; Group B, 5 mg b.i.d. oral, Day 2, baseline 485.00): 563.5 ng/dL
Testosterone levels (plasma testosterone; Group B, 5 mg b.i.d. oral, Day 3, baseline 485.00): 541.35 ng/dL
Testosterone levels (plasma testosterone; Group B, 5 mg b.i.d. oral, Day 4, baseline 485.00): 527.40 ng/dL
Testosterone levels (plasma testosterone; Group B, 5 mg b.i.d. oral, Day 5, baseline 485.00): 502.85 ng/dL
Testosterone levels (plasma testosterone; Group B, 5 mg b.i.d. oral, Day 6, baseline 485.00): 493.25 ng/dL
Testosterone levels (plasma testosterone; Group B, 5 mg b.i.d. oral, Day 7, baseline 485.00): 484.75 ng/dL
Testosterone levels (plasma testosterone; Group B, 5 mg b.i.d. oral, Day 8, baseline 485.00): 449.10 ng/dL
Testosterone levels (plasma testosterone; Group B, 5 mg b.i.d. oral, Day 9, baseline 485.00): 427.65 ng/dL
Testosterone levels (plasma testosterone; Group B, 5 mg b.i.d. oral, Day 10, baseline 485.00): 428.95 ng/dL
Elevation of plasma testosterone, comparison of dose groups (plasma testosterone; Group B, 5 mg b.i.d., compared with Group C, 10 mg q.d.): more significant elevation of plasma testosterone
Testosterone levels relative to baseline (plasma testosterone; Group C, 10 mg q.d. oral): higher than the baseline until Day 6
Testosterone levels (plasma testosterone; Group C, 10 mg q.d. oral, Day 2, baseline 458.85): 495.85 ng/dL
Testosterone levels (plasma testosterone; Group C, 10 mg q.d. oral, Day 3, baseline 458.85): 501.00 ng/dL
Testosterone levels (plasma testosterone; Group C, 10 mg q.d. oral, Day 4, baseline 458.85): 492.20 ng/dL
Testosterone levels (plasma testosterone; Group C, 10 mg q.d. oral, Day 5, baseline 458.85): 463.90 ng/dL
Testosterone levels (plasma testosterone; Group C, 10 mg q.d. oral, Day 6, baseline 458.85): 412.65 ng/dL
Testosterone levels (plasma testosterone; Group C, 10 mg q.d. oral, Day 7, baseline 458.85): 435.50 ng/dL
Testosterone levels (plasma testosterone; Group C, 10 mg q.d. oral, Day 8, baseline 458.85): 409.00 ng/dL
Testosterone levels (plasma testosterone; Group C, 10 mg q.d. oral, Day 9, baseline 458.85): 428.05 ng/dL
Testosterone levels (plasma testosterone; Group C, 10 mg q.d. oral, Day 10, baseline 458.85): 405.95 ng/dL

gonadotropin releasing hormone (QHWSYGLRPG; Gonadoliberin-1; UniProt P01148 24-33, looked up) [GnRH, hormone that is secreted by the hypothalamus in a pulsating fashion, also known as LH-RH]
Serum LH levels (serum LH): Increases in serum LH levels
Plasma LH and FSH levels (plasma LH and FSH): increases in plasma LH and FSH levels
